Laboratory results taken from patent US20030068789A1, “Method for cultivating microorganism” (priority 2000, published 2003).

Tested on: microorganism having nitrile hydratase activity
Experiment: Growth inhibition caused by cobalt ions in cultivating a microorganism
Type: cell-based
Settings: sugar present in culture solution as carbon source
Description: The present inventors have conducted intensive studies on culture conditions to industrially obtain microbial cells having nitrile hydratase activity within a short period and at a high yield. […] Thus, the present invention has been accomplished.
As a result, it is possible to obtain microbial cells having nitrile hydratase enzyme activity within a short period and at a high yield

Structure (SMILES)	growth inhibition caused by cobalt ions
O=C(CO)[C@@H](O)[C@H](O)[C@H](O)CO [fructose]	can reduce growth inhibition caused by cobalt ions
OC[C@@H](O)[C@@H](O)[C@H](O)[C@H](O)CO [mannitol]	can reduce growth inhibition caused by cobalt ions
